Assay results reported in patent US11708344B2, “Flavone derivatives for the treatment and prophylaxis of hepatitis B virus disease” (Hoffmann-La Roche Inc., priority 2018, dated 2023).
pIC50: −log10 of the molar value. Like-named read-outs stand apart in the source and are kept apart here.

Key:
[1] = Human microsome stability assay; format: in vitro ADME; conditions: human liver microsomes, 1 μM test compound, 0.5 mg/mL microsomal protein, 37° C., pH 7.4, 0-30 minutes
How it was run: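 Parent compound remaining was measured by LC-MS/MS at 0, 3, 6, 9, 15 and 30 min, following ACN quench. Reactions held 1 μM compound and 0.5 mg/mL human liver microsomal protein in pH 7.4 phosphate buffer at 37 °C, started by NADPH regeneration (1 mM NADP, 1 mM MgCl2); controls lacked NADPH.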

[2] = tested on: HBeAg (surrogate marker for cccDNA) in HepDES19 cells; experiment: Engineered HepDES19 primary screen assay (HBeAg ELISA); format: cell-based, HBV
How it was run: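 IC50 values come from 4-parameter logistic fits of HBeAg ELISA signal, the cccDNA surrogate, with CCK-8 run in parallel for viability. Compounds at half-log dilutions with 1% DMSO were applied for 5 days at 37 °C to HepDES19 cells previously cultured 8 days without Tet.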

[3] = Hepatitis B virus, HepDES19, 120 h, read-out: IC50 (HBeAg level, HepDES19 primary screen assay), HepDES19 cells, 5 days compound incubation, HBeAg ELISA

SMILES	Clearance of Human microsome [1] [mL/min/kg]	pIC50 [2, 3]	pIC50 ([2]; read-out: IC50 (HBeAg level, HepDES19 primary screen assay), HepDES19 cells, 5 days compound incubation, HBeAg ELISA)
O=c1cc(-c2ccccc2OCCO[C@H]2C[C@@H](C(=O)O)C2)oc2c(Cl)ccc(C(F)(F)F)c12 [Example C094, cis-3-[2-[2-[8-chloro-4-oxo-5-(trifluoromethyl)chromen-2-yl]phenoxy]ethoxy]cyclobutanecarboxylic acid]	6.15	7.40	–
O=c1cc(-c2ccc(C(F)(F)F)cc2O[C@H]2C[C@@H](C(=O)O)C2)oc2c(Cl)ccc(O)c12 [Example B038-A, Cis-3-[2-(8-chloro-5-hydroxy-4-oxo-chromen-2-yl)-5-(trifluoromethyl)phenoxy]cyclobutanecarboxylic acid]	6.84	5.98	–
Cc1ccc(O[C@H]2C[C@@H](C(=O)O)C2)c(-c2cc(=O)c3cccc(Cl)c3o2)c1 [Example B016, Cis-3-[2-(8-chloro-4-oxo-chromen-2-yl)-4-methyl-phenoxy]cyclobutanecarboxylic acid]	6.15	5.51	–
COc1cc(-c2cc(=O)c3cccc(Cl)c3o2)c(O[C@H]2C[C@H](C(=O)NS(C)(=O)=O)C2)cc1Br [Example B053-B, Trans-3-[5-bromo-2-(8-chloro-4-oxo-chromen-2-yl)-4-methoxy-phenoxy]-N-methylsulfonyl-cyclobutanecarboxamide]	6.15	6.04	–
COc1c(-c2ccc(C(F)(F)F)cc2OCCC(=O)O)oc2c(Cl)cccc2c1=O [Example A047, 3-[2-(8-chloro-3-methoxy-4-oxo-chromen-2-yl)-5-(trifluoromethyl)phenoxy]propanoic acid]	6.15	5.74	–
O=c1cc(-c2cccc(F)c2OCCO[C@H]2C[C@H](C(=O)O)C2)oc2c(Cl)cccc12 [Example C037-B, Trans-3-[2-[2-(8-chloro-4-oxo-chromen-2-yl)-6-fluoro-phenoxy]ethoxy]cyclobutanecarboxylic acid]	6.15	6.27	–
O=c1cc(-c2ccccc2O[C@H]2C[C@H](C(=O)O)C2)oc2c(Br)cccc12 [Example B022-B, Trans-3-[2-(8-bromo-4-oxo-chromen-2-yl)phenoxy]cyclobutanecarboxylic acid]	6.15	6.85	–
COc1ccc(-c2cc(=O)c3cccc(Cl)c3o2)c(OCCO[C@H]2C[C@@H](C(=O)O)C2)c1 [Example C039-A, Cis-3-[2-[2-(8-chloro-4-oxo-chromen-2-yl)-5-methoxy-phenoxy]ethoxy]cyclobutanecarboxylic acid]	6.15	5.05	–
COc1cc(OCCO[C@H]2C[C@@H](C(=O)O)C2)c(-c2cc(=O)c3cccc(Cl)c3o2)cc1Br [Example C040-A, Cis-3-[2-[4-bromo-2-(8-chloro-4-oxo-chromen-2-yl)-5-methoxy-phenoxy]ethoxy]cyclobutanecarboxylic acid]	8.52	4.88	–
O=C(O)CCOc1cc(C(F)(F)F)ccc1-c1cc(=O)c2cc(F)cc(Cl)c2o1 [Example A003, 3-[2-(8-chloro-6-fluoro-4-oxo-chromen-2-yl)-5-(trifluoromethyl)phenoxy]propanoic acid]	6.15	6.44	–
O=C(O)[C@@H]1C[C@@H](Oc2cc(C(F)(F)F)ccc2-c2cc(=O)c3cccc(Cl)c3o2)CN1S(=O)(=O)C1CC1 [Example B077]	6.15	6.18	–
COc1cc(OCCO[C@H]2C[C@@H](C(=O)O)C2)c(-c2cc(=O)c3cccc(Cl)c3o2)cc1O [Example C083, cis-3-[2-[2-(8-chloro-4-oxo-chromen-2-yl)-4-hydroxy-5-methoxy-phenoxy]ethoxy]cyclobutanecarboxylic acid]	6.15	5.34	–
COc1cc(OCCC(=O)NS(=O)(=O)C2CC2)c(-c2cc(=O)c3cccc(Cl)c3o2)cc1OC [Example A085, 3-[2-(8-chloro-4-oxo-chromen-2-yl)-4,5-dimethoxy-phenoxy]-N-cyclopropylsulfonyl-propanamide]	6.15	5.31	–
CS(=O)(=O)NC(=O)[C@H]1C[C@@H](Oc2cc(C(F)(F)F)ccc2-c2cc(=O)c3cccc(Cl)c3o2)C1 [Example B048-A, Cis-3-[2-(8-chloro-4-oxo-chromen-2-yl)-5-(trifluoromethyl)phenoxy]-N-methylsulfonyl-cyclobutanecarboxamide]	6.15	6.20	–
O=C(O)COCCCOc1cc(C(F)(F)F)ccc1-c1cc(=O)c2c(O)ccc(Cl)c2o1 [Example C100, 2-[3-[2-(8-chloro-5-hydroxy-4-oxo-chromen-2-yl)-5-(trifluoromethyl)phenoxy]propoxy]acetic acid]	6.15	6.16	–
O=c1cc(-c2ccc(Br)cc2OCCCO[C@H]2C[C@@H](C(=O)O)C2)oc2c(Cl)cccc12 [Example C056-A, Cis-3-[3-[5-bromo-2-(8-chloro-4-oxo-chromen-2-yl)phenoxy]propoxy]cyclobutanecarboxylic acid]	6.15	5.62	–
CCOc1ccc(OCCO[C@H]2C[C@@H](C(=O)O)C2)c(-c2cc(=O)c3cccc(Cl)c3o2)c1 [Example C051-A, Cis-3-[2-[2-(8-chloro-4-oxo-chromen-2-yl)-4-ethoxy-phenoxy]ethoxy]cyclobutanecarboxylic acid]	6.15	5.38	–
O=C(O)[C@@H]1C[C@H](Oc2cc(C(F)(F)F)ccc2-c2cc(=O)c3cccc(Cl)c3o2)CN1S(=O)(=O)C1CC1 [Example B078, (2S,4S)-4-[2-(8-chloro-4-oxo-chromen-2-yl)-5-(trifluoromethyl)phenoxy]-1-cyclopropylsulfonyl-pyrrolidine-2-carboxylic acid]	6.15	6.27	–
O=C(COc1cc(C(F)(F)F)ccc1-c1cc(=O)c2cccc(Cl)c2o1)NC1CC(C(=O)O)C1 (centres unmarked) [Example A074, 3-[[2-[2-(8-chloro-4-oxo-chromen-2-yl)-5-(trifluoromethyl)phenoxy]acetyl]amino]cyclobutanecarboxylic acid]	6.15	5.62	–
Cc1cc(-c2cc(=O)c3cccc(Cl)c3o2)c(OCCOCC(=O)O)cc1Br [Example C021, 2-[2-[5-bromo-2-(8-chloro-4-oxo-chromen-2-yl)-4-methyl-phenoxy]ethoxy]acetic acid]	7.66	5.03	–
COc1ccc(O[C@H]2C[C@H](C(=O)O)C2)c(-c2cc(=O)c3cccc(Cl)c3o2)c1 [Example B021, Trans-3-[2-(8-chloro-4-oxo-chromen-2-yl)-4-methoxy-phenoxy]cyclobutanecarboxylic acid]	6.15	5.51	–
O=c1cc(-c2ccccc2OCCO[C@H]2C[C@H](C(=O)O)C2)oc2c(Br)cccc12 [Example C046-B, Trans-3-[2-[2-(8-bromo-4-oxo-chromen-2-yl)phenoxy]ethoxy]cyclobutanecarboxylic acid]	6.15	–	6.60
